Reference: US10344026B2, “Compositions and methods of targeting mutant K-ras” (NANTBIO, INC., priority 2017, dated 2019)
Where two headings read alike, the source gives them in different places.

Columns and labels:
Assay type in all cases: cell-based
[1] = test system: Ishikawa (K-Ras wild type cell line); experiment: Viability assay (CellTiterBlue, 72 hr) Ishikawa; settings: Homo sapiens, GI50, CellTiterBlue
Experimental: (§1) Viability assays were performed on exemplary compounds and Table 2 below lists exemplary results for selected compounds tested on K-Ras wild type cell lines (Ishikawa, U87-MG, HCC827, and A375) and various K-Ras mutant cell lines (Panc1-G12D; Panc10.05-G12D; HCT116-G31D). Results are expressed in μM and corresponding structures are shown in FIGS. 2A-2G and Examples 1-152, above.
(§2) Cells are counted and seeded at 1000 cells/36 ul medium/well into 384-well microplates. Cells are returned to 37° C. CO2 incubator for 18 hr. Drug is made as 200× in DMSO and diluted into medium to 10×. To each well is added 4 ul 10× drug, and plates are returned to the incubator. Final assay DMSO concentration is 0.5%. After 72 hr, 8 ul CellTiterBlue (Promega) is added to each well. After 3 hr, fluorescence (Ex550/Em590) is determined on the Victor Plate Reader (Perkin Elmer). Assay range is determined by DMSO control (100% viability) and 100 uM tamoxifen (0% viability). GI50 values are calculated using Graphpad Prism.

[2] = test system: U87-MG (K-Ras wild type cell line); experiment: Viability assay (CellTiterBlue, 72 hr) U87-MG; settings: Homo sapiens, U-87 MG, GI50, CellTiterBlue
Experimental: as §1, §2

[3] = test system: HCC827 (K-Ras wild type cell line); experiment: Viability assay (CellTiterBlue, 72 hr) HCC827; settings: Homo sapiens, GI50, CellTiterBlue
Experimental: as §1, §2

[4] = test system: HCT116-G31D; experiment: Viability assay (CellTiterBlue, 72 hr) HCT116; settings: Homo sapiens, HCT-116, GI50, CellTiterBlue, read-out: 72 hr Cell Viability HCT116 (G13D)
Experimental: as §1, §2

[5] = test system: Panc10.05-G12D; experiment: Viability assay (CellTiterBlue, 72 hr) Panc10.05; settings: Homo sapiens, Panc1005, GI50, CellTiterBlue, read-out: 72 hr Cell Viability Panc10.05 (G12D)
Experimental: as §1, §2

[6] = test system: Panc1-G12D; experiment: Viability assay (CellTiterBlue, 72 hr) Panc1; settings: Homo sapiens, PANC-1, GI50, CellTiterBlue, read-out: 72 hr Cell Viability Panc1 (G12D)
Experimental: as §1, §2

[7] = target: T1, K-Ras G12D (Homo sapiens, UniProt P01116, G12D); experiment: G-LISA Ras activation, 293H cells transfected with G12D mutant; settings: compound 1 hour
T1 construct: expressed in transfected cells; host or cells: 293H cells
Experimental: 293H cells were seeded in 6-wells at 0.6×10^6 cells per well and transfected next day with 5 μg of Ras wild-type, or G12C, G12D or G12V mutant DNA plasmid vector using transfection reagent Lipofectamine 3000. Next day cells were treated with 3.125-25 μM of Ras compounds for 1 hour. Wild-type transfected cells were subsequently treated with 100 ng/ml EGF for 2 minutes. Cells were washed once in ice-cold PBS, lysed in complete lysis buffer on ice, and processed by G-LISA according to Cytoskeleton protocol.

[8] = Ishikawa cells (K-Ras wild-type)

T1 sequence (P01116 whole entry G12D): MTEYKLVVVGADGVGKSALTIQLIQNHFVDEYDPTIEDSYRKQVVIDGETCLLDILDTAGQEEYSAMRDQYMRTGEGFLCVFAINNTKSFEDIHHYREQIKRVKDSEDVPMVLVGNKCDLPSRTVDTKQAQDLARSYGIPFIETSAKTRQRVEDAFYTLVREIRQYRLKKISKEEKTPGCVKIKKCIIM

Row | SMILES | IC50 ([1]; Ishikawa K-Ras wild-type) | IC50 ([2]; U87-MG K-Ras wild-type) | IC50 ([3]; HCC827 K-Ras wild-type) | IC50 ([4]; HCT116 K-Ras G13D) | IC50 ([5]; Panc10.05 K-Ras G12D) | IC50 ([6]; Panc1 K-Ras G12D) | IC50 [1, 8] | IC50 ([2]; U87-MG cells (K-Ras wild-type)) | IC50 [7] | IC50 ([3]; HCC827 cells (K-Ras wild-type)) | IC50 ([4]; HCT116 cells (K-Ras G13D)) | IC50 ([5]; Panc10.05 cells (K-Ras G12D)) | IC50 ([6]; Panc1 cells (K-Ras G12D))
1 | COc1cc(Cl)cc(CN2C(=O)CCc3cc(-c4csc(NC(=O)c5oc(C)nc5C)n4)ccc32)c1 [Compound 78] | > 25 µM | > 25 µM | > 25 µM | > 25 µM | > 25 µM | > 25 µM | – | – | – | – | – | – | –
2 | Cc1nc(C2CCCCC2)oc1C(=O)Nc1nc(-c2ccc3c(c2)CCC(=O)N3)cs1 [Compound 11, 2-cyclohexyl-4-methyl-N-(4-(2-oxo-1,2,3,4-tetrahydroquinolin-6-yl)thiazol-2-yl)oxazole-5-carboxamide] | – | > 25 µM | 21 µM | 16 µM | 16 µM | > 25 µM | – | – | – | – | – | – | –
3 | O=C1CCc2cc(-c3csc(NC(=O)c4ccc(Cl)s4)n3)ccc2N1 [Compound 150, 5-chloro-N-(4-(2-oxo-1,2,3,4-tetrahydroquinolin-6-yl)thiazol-2-yl)thiophene-2-carboxamide] | – | – | – | – | – | – | 5 µM | 8 µM | > 25 µM | 20 µM | 27 µM | 20 µM | 27 µM
4 | Cc1nc(C)c(C(=O)Nc2nc(-c3ccc4c(c3)CCC(=O)N4Cc3cccc4cnccc34)cs2)o1 [Compound 83, N-(4-(1-(isoquinolin-5-ylmethyl)-2-oxo-1,2,3,4-tetrahydroquinolin-6-yl)thiazol-2-yl)-2,4-dimethyloxazole-5-carboxamide] | 2 µM | 3 µM | 6 µM | 4 µM | 4 µM | 12 µM | – | – | > 25 µM | – | – | – | –
5 | Cc1nc(C)c(C(=O)Nc2nc(-c3ccc4c(c3)CCC(=O)N4CC(O)CO)cs2)o1 (stereo not drawn) [Compound 89, N-(4-(1-(2,3-dihydroxypropyl)-2-oxo-1,2,3,4-tetrahydroquinolin-6-yl)thiazol-2-yl)-2,4-dimethyloxazole-5-carboxamide] | – | 13 µM | 12 µM | 11 µM | 12 µM | > 25 µM | – | – | – | – | – | – | –
6 | Cn1nccc1-c1csc(C(=O)Nc2nc(-c3ccc4c(c3)CCC(=O)N4)cs2)c1 [Compound 151, 4-(1-methyl-1H-pyrazol-5-yl)-N-(4-(2-oxo-1,2,3,4-tetrahydroquinolin-6-yl)thiazol-2-yl)thiophene-2-carboxamide] | – | – | – | – | – | – | 1.3 µM | 5 µM | 23.5 µM | 8 µM | 2 µM | 1.4 µM | 4 µM
7 | Cc1nc(C)c(C(=O)Nc2nc(-c3ccc4c(c3)CCC(=O)N4Cc3cccc4ccccc34)cs2)o1 [Compound 79, 2,4-dimethyl-N-(4-(1-(naphthalen-1-ylmethyl)-2-oxo-1,2,3,4-tetrahydroquinolin-6-yl)thiazol-2-yl)oxazole-5-carboxamide] | > 25 µM | > 25 µM | > 25 µM | > 25 µM | > 25 µM | > 25 µM | – | – | – | – | – | – | –
8 | Cc1nc(C)c(C(=O)Nc2nc(-c3ccc4c(c3)CCC(=O)N4CC3CCCNC3)cs2)o1 (stereo not drawn) [Compound 88] | – | 19 µM | 15 µM | 17 µM | 16 µM | > 25 µM | – | – | – | – | – | – | –
9 | O=C1CCc2cc(-c3csc(NC(=O)c4cc(Br)cs4)n3)ccc2N1 [Compound 149, 4-bromo-N-(4-(2-oxo-1,2,3,4-tetrahydroquinolin-6-yl)thiazol-2-yl)thiophene-2-carboxamide] | – | – | – | – | – | – | 7 µM | 11 µM | – | 22 µM | 28 µM | 22 µM | > 25 µM
10 | Cc1nc(-c2ccc3c(c2)OCC3)sc1C(=O)Nc1nc(-c2ccc3c(c2)CCC(=O)N3)cs1 [Compound 19, 2-(2,3-dihydrobenzofuran-6-yl)-4-methyl-N-(4-(2-oxo-1,2,3,4-tetrahydroquinolin-6-yl)thiazol-2-yl)thiazole-5-carboxamide] | 2 µM | 4 µM | 8 µM | 5 µM | 2 µM | 6 µM | – | – | – | – | – | – | –
11 | Cc1nc(C)c(C(=O)Nc2nc(-c3ccc4c(c3)CCC(=O)N4Cc3cccc([N+](=O)[O-])c3)cs2)o1 [Compound 87, 2,4-dimethyl-N-(4-(1-(3-nitrobenzyl)-2-oxo-1,2,3,4-tetrahydroquinolin-6-yl)thiazol-2-yl)oxazole-5-carboxamide] | – | > 25 µM | > 25 µM | > 25 µM | 17 µM | 17 µM | – | – | – | – | – | – | –
12 | Cc1nc(C)c(C(=O)Nc2nc(-c3ccc4c(c3)CCC(=O)N4Cc3ccc4c(c3)OCO4)cs2)o1 [Compound 74, N-(4-(1-(benzo[d][1,3]dioxol-5-ylmethyl)-2-oxo-1,2,3,4-tetrahydroquinolin-6-yl)thiazol-2-yl)-2,4-dimethyloxazole-5-carboxamide] | 16 µM | 6 µM | > 25 µM | > 25 µM | 2 µM | 11 µM | – | – | 22.4 µM | – | – | – | –
13 | Cc1cc(C)c(C(=O)Nc2nc(-c3ccc4c(c3)CCC(=O)N4)cs2)cn1 [Compound 18] | 2 µM | 11 µM | > 25 µM | 26 µM | 3 µM | 5 µM | – | – | – | – | – | – | –
14 | Cc1nc(C)c(C(=O)Nc2nc(-c3ccc4c(c3)CCC(=O)N4Cc3ccc4ccccc4c3)cs2)o1 [Compound 80, 2,4-dimethyl-N-(4-(1-(naphthalen-2-ylmethyl)-2-oxo-1,2,3,4-tetrahydroquinolin-6-yl)thiazol-2-yl)oxazole-5-carboxamide] | > 25 µM | 4 µM | 7 µM | 9 µM | 9 µM | > 25 µM | – | – | – | – | – | – | –
15 | COc1cc(CN2C(=O)CCc3cc(-c4csc(NC(=O)c5oc(C)nc5C)n4)ccc32)cc(OC)c1 [Compound 77, N-(4-(1-(3,5-dimethoxybenzyl)-2-oxo-1,2,3,4-tetrahydroquinolin-6-yl)thiazol-2-yl)-2,4-dimethyloxazole-5-carboxamide] | > 25 µM | > 25 µM | > 25 µM | > 25 µM | > 25 µM | > 25 µM | – | – | – | – | – | – | –
